Assay results as given in ChEMBL document CHEMBL4765309, “New deferiprone derivatives as multi-functional cholinesterase inhibitors: design, synthesis and in vitro evaluation” (Eur J Med Chem, 2020).
Active and inactive are the calls of the source. The calls are words filed in the database; no cut-off is given here.

What was measured:
Cholinesterase = Cholinesterase (Equus caballus, UniProt P81908); test: Inhibition of equine BChE assessed as inhibition constant using acetylthiocholine as substrate measured for 0.5 to 1.5 mins by Ellman's method
Cholinesterase, sequence (P81908 whole entry): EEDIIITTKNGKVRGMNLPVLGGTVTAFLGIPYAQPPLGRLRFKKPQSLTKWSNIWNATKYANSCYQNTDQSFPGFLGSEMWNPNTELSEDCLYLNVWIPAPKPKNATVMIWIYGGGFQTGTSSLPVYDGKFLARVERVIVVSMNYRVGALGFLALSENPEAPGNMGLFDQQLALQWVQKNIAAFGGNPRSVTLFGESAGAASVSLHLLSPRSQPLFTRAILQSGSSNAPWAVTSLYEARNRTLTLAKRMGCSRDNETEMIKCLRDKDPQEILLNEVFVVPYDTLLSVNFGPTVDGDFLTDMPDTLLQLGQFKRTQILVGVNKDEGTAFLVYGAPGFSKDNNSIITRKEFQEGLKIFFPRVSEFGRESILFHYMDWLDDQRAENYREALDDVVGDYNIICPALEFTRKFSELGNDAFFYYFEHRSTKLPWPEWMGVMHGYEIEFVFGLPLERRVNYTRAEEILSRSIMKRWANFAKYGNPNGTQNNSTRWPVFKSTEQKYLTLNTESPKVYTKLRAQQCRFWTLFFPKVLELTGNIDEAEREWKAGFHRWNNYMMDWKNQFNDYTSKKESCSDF

[1] = Metal chelating activity assessed as compound-Fe3+ complex formation at 1.7 mM in presence of FeCl3.6H2O by UV-vis spectrophotometric titration analysis
[2] = target: Cholinesterase (Equus caballus) (UniProt P81908); test: Mixed type inhibition of equine BChE using varying level of acetylthiocholine as substrate by Dixon plot analysis
Cholinesterase (Equus caballus), sequence (P81908 whole entry): as above

Acetylcholinesterase = Acetylcholinesterase (Electrophorus electricus, UniProt O42275); test: Inhibition of electric eel AChE assessed as inhibition constant using acetylthiocholine as substrate measured for 0.5 to 1.5 mins by Ellman's method
Acetylcholinesterase, sequence (O42275 whole entry): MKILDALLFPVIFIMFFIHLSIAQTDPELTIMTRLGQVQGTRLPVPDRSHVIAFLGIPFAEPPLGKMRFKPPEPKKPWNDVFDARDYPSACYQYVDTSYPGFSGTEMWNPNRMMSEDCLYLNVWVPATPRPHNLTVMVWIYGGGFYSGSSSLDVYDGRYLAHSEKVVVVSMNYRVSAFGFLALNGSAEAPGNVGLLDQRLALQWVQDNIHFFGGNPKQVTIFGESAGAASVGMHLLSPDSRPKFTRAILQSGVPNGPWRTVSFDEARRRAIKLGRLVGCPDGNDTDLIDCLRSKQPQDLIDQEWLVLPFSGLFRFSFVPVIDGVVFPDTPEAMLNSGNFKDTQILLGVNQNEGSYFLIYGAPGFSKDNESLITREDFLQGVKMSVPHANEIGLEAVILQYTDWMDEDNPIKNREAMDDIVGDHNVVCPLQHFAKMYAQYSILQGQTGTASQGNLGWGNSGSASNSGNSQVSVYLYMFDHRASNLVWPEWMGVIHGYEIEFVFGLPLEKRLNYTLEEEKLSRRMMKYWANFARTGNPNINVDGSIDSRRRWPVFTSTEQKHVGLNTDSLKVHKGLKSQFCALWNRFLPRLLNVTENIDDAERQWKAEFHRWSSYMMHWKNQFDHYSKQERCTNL

[3] = Metal chelating activity assessed as compound-Zn2+ complex formation at 2 mM in presence of Zn(NO3)2.6H2O by UV-vis spectrophotometric titration analysis
[4] = Cytotoxicity against human U-87 MG cells assessed as cell viability at 10 uM incubated for 24 hrs by MTT assay; assay type: cell-based, U-87MG ATCC; settings: read-out: Activity
[5] = Metal chelating activity assessed as compound-Fe3+ complex formation by measuring mole fraction that causes maximum variation in absorbance in presence of FeCl3.6H2O by Job's plot analysis
[6] = Metal chelating activity assessed as compound-Cu2+ complex formation by measuring mole fraction that causes maximum variation in absorbance in presence of CuSO4.5H2O by Job's plot analysis
[7] = Metal chelating activity assessed as compound-Fe3+ complex formation at 2 mM in presence of FeCl3.6H2O by UV-vis spectrophotometric titration analysis
[8] = Metal chelating activity assessed as compound-Cu2+ complex formation at 2 mM in presence of CuSO4.5H2O by UV-vis spectrophotometric titration analysis

SMILES | Ki (Cholinesterase) [nM] | Activity [1] | inhibition [2] | Ki (Acetylcholinesterase) [nM] | Activity [3] | viability at 24 h, 10 µM [4] [%] | Activity (mole fraction) [5] | Activity (mole fraction) [6] | Activity [7] | Activity [8]
Cc1c(OCc2ccccc2)c(=O)ccn1CCCCCCNCc1ccccc1 | 2360 | Active | Active | 788 | inactive | > 75 | 0.52 | – | – | –
COc1ccccc1CNCCCCCCn1ccc(=O)c(OCc2ccccc2)c1C | 910 | – | Active | 2790 | – | > 75 | – | – | – | –
Cc1c(OCc2ccccc2)c(=O)ccn1CCCCNCc1ccccc1 | 450 | – | Active | – | – | > 75 | – | – | – | –
Cc1c(O)c(=O)ccn1CCCCCCNc1ccnc(NCc2ccccc2)n1 | 920 | – | Active | – | Active | > 75 | 0.5 | 0.64 | – | –
COc1ccccc1CNCCCCCCn1ccc(=O)c(O)c1C | – | – | – | 1340 | – | > 75 | – | – | – | –
Cc1c(OCc2ccccc2)c(=O)ccn1CCCCCCNc1ccnc(NCc2ccccc2)n1 | 258 | – | Active | – | – | > 75 | 0.67 | – | Active | Active
Cc1c(OCc2ccccc2)c(=O)ccn1CCCCCCNc1ccccn1 | 182 | – | Active | – | – | > 75 | 0.7 | – | Active | –
Cc1c(OCc2ccccc2)c(=O)ccn1CCCCCCNc1nccc(Cl)n1 | 1080 | – | Active | – | – | > 75 | – | – | Active | –
Cc1c(O)c(=O)ccn1CCCCCCNCc1ccccc1 | – | – | – | 1370 | inactive | > 75 | 0.53 | 0.37 | Active | Active
